Test results taken from patent EP4620476A1, “ANTIVIRAL COMPOSITION CONTAINING INCLUSION COMPOUNDS WITH CYCLODEXTRINS AS ACTIVITY MODULATORS AND ANTISEPTIC ACTIVES AND USES THEREOF” (Silva, Renata Moisés Iwamizu, priority 2022, dated 2024).
Structures can show the parent of a compound that is named as a salt.

Legend:
[1] = cited from earlier work
HSV-1 = assay: Virucidal assay: HSV-1 incubated with product, then added to Vero cells, MTT readout; type: cell-based; conditions: 3 µg/mL
Procedure: (§1) The product was evaluated for its effective concentration against the virus without causing toxicity to the tested cells. The virus (HSV-1) was added to different dilutions of the product and incubated for 1 hour at 37°C. Then, the solution was diluted (1:10) and added to Vero cells (ATCC CCL-81) for incubation for 72 hours at 37°C and 5% CO2. Positive control (virus without treatment with the inclusion compounds) and negative control (cells without virus and without treatment) were used, under the same conditions, in all tests. The results were evaluated by MTT (Mosmann, 1983; Sieuwerts et al., 1995). The assays were carried out in a NB-2 laboratory (Biosafety Level 2) following Good Laboratory Practices (GLP) and in accordance with the recommendations of ANVISA (Art. 1 and Art. 3 of IN 04/13 and IN 12/16).

[2] = Cytotoxicity in Vero cells (MTT); type: cell-based; conditions: monkey
Procedure: as §1

Row | Compound | plasma protein binding [1] | inactivation of HSV-1 (HSV-1) | CC50 at 72 h [2]
1 | Nc1nc2c(ncn2COCCO)c(=O)[nH]1 [Acyclovir] | less than 20% |  | 
2 | N=C(NCCCCCCNC(=N)NC(=N)Nc1ccc(Cl)cc1)NC(=N)Nc1ccc(Cl)cc1 [digluconate salt of chlorhexidine] |  | unable to inactivate HSV-1 | > 3 µg/mL
